Experimental data from article PMC4306921 (Scientific Reports, 2015).

Experiments:
Type in all cases: cell-based
CHO-K1 cells = details: CHO-K1, no receptor plasmid, 10 μM 5-HT, 12–24 h
293T cells = details: no receptor plasmid, 10 μM 5-HT, 12–24 h
adenylyl cyclase = test: FSK stimulation in the CRE-luc reporter gene assay system; details: read-out: EC50 value of FSK in reporter gene assay system; data not shown
5-HT2A receptor = 5-HT2A receptor (Homo sapiens, UniProt P28223); test: CRE-luc luciferase reporter gene assay, 5-HT2A transfected CHO-K1 cells; details: 5-HT2A transfected cells, 0.1 μM antagonist, 5-HT lower than 1 μM
5-HT2A receptor, sequence (P28223 whole entry): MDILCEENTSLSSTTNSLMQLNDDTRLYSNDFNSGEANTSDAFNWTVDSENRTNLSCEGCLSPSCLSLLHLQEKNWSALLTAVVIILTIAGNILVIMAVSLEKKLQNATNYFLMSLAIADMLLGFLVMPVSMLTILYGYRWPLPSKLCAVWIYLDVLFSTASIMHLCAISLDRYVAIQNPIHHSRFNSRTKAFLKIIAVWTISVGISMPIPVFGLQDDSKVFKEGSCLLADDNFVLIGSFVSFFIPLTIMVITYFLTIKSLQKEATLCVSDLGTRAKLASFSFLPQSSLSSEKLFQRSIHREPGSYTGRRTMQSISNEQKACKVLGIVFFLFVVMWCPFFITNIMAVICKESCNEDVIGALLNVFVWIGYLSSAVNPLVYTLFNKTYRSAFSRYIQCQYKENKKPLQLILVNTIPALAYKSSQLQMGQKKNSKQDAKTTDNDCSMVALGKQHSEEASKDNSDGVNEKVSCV

`NCCc1c[nH]c2ccc(O)cc12` [5-HT] was tested, and the “nonspecific/endogenous activation of CRE-luc by 5-HT” value (CHO-K1 cells) was “no nonspecific and endogenous activation was observed” and the “nonspecific/endogenous activation of CRE-luc by 5-HT” value (293T cells) was “significantly expression of luciferase was detected”.
Work on `C=C[C@@]1(C)CC(=O)[C@]2(O)[C@@]3(C)[C@@H](O)CCC(C)(C)[C@@H]3[C@H](O)[C@H](OC(C)=O)[C@@]2(C)O1` [FSK] yielded an EC50 (adenylyl cyclase) of 780 nM.
With `CSc1ccc2c(c1)C(N1CCN(C)CC1)Cc1ccccc1S2` (stereo not shown) [Methiothepin] the “suppression of luciferase reporter gene expression” value (5-HT2A receptor) was “significantly suppress”.
